Laboratory results as given in US20070021509A1, “Phosphate transport inhibitors” (priority 2001, published 2007).
pIC50: −log10 of the molar value.

system: phosphate uptake by rabbit intestinal Brush Border Membrane Vesicles (BBMV); assay: 33PO4 uptake in rabbit intestinal BBMV (HTS), phosphate transporter inhibition in vitro; type: biochemical; settings: Table 14, in vitro, read-out: Phosphate Transport IC50
How it was run: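 BBMV from duodenal mucosa of male New Zealand White rabbits, diluted to about 0.5-2.0 mg/mL protein. Uptake buffers carried 33PO4 at 200,000 CPM/19 μL. Controls: Na uptake buffer (max), plus 100 μM KH2PO4 pH 7.4 (mid), K uptake buffer (min).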

SMILES	pIC50
COc1ccc(F)cc1CNC(=O)c1cc(Br)ccc1NS(=O)(=O)c1ccc(OC(F)(F)F)cc1 [Example 78, 5-Bromo-N-(5-fluoro-2-methoxy-benzyl)-2-(4-trifluoromethoxy-benzenesulfonylamino)-benzamide]	5.11
O=C(NCc1ccc(OC(F)(F)F)cc1O)c1cc(Br)ccc1NS(=O)(=O)c1ccc(OC(F)(F)F)cc1 [Example 75, 5-Bromo-N-(2-hydroxy-4-trifluoromethoxy-benzyl)-2-(4-trifluoromethoxy-benzenesulfonylamino)-benzamide]	5.28
O=C(Nc1cccc(C(F)(F)F)c1)Nc1cccc(C(F)(F)F)c1 [Example 82, 1,3Bis(3-Trifluoromethylphenyl)urea]	4.96
Cn1nc(C(C)(C)C)cc1C(=O)Nc1ccc(C(F)(F)F)cc1 [Example 84, 5-tert-Butyl-2-methyl-2H-pyrazole-3-carboxylic acid (4-trifluoromethyl-phenyl)-amide]	4.96
O=C(Nc1cc(C(F)(F)F)cc(C(F)(F)F)c1)NC1CCCCC1 [Example 83, 1-Cyclohexyl-3-(3,5-Bistrifluoromethyl-phenyl)-urea]	5.11
O=C(Nc1cccc(C(F)(F)F)c1)Nc1ccc(F)c([N+](=O)[O-])c1 [Example 86, 1-(4-Fluoro-3-nitro-phenyl)-3-(3-trifluoromethyl-phenyl)-urea]	5.55
Cl.N=C(Nc1cc(C(F)(F)F)cc(C(F)(F)F)c1)Nc1cc(C(F)(F)F)cc(C(F)(F)F)c1 [Example 88, N,N′-Bis-(3,5-bis-trifluoromethyl-phenyl)-guanidine Hydrochloride]	4.59
COc1ccccc1CNC(=O)c1cc(Br)ccc1NS(=O)(=O)c1ccc(OC(F)(F)F)cc1 [Example 70, 5-Bromo-N-(2-methoxy-benzyl)-2-(4-trifluoromethoxy-benzenesulfonylamino)-benzamide]	5.20
O=C(NCc1ccc(F)cc1)c1cc(Br)ccc1NS(=O)(=O)c1ccc(OC(F)(F)F)cc1 [Example 71, 5-Bromo-N-(4-fluoro-benzyl)-2-(4-trifluoromethoxy-benzenesulfonylamino)-benzamide]	4.89
Cl.N=C(Nc1ccc(Cl)c(C(F)(F)F)c1)Nc1ccc(Cl)c(C(F)(F)F)c1 [Example 89, N,N′-Bis-(4-chloro-3-trifluoromethyl-phenyl)-guanidine Hydrochloride]	4.80
O=C(Nc1cccc(C(F)(F)F)c1)Nc1cc(Cl)ccc1Cl [Example 85, 1-(2,5-Dichloro-phenyl)-3-(3-trifluoromethyl-phenyl)-urea]	5.00
Cl.N=C(Nc1ccc(C(F)(F)F)c(C(F)(F)F)c1)Nc1ccc(C(F)(F)F)c(C(F)(F)F)c1 [Example 90, N,N′-Bis-(3,4-bis-trifluoromethyl-phenyl)-guanidine Hydrochloride]	4.77
Cl.N=C(Nc1ccc(Br)c(C(F)(F)F)c1)Nc1ccc(Br)c(C(F)(F)F)c1 [Example 87, N,N′-Bis-(4-bromo-3-trifluoromethyl-phenyl)-guanidine Hydrochloride]	4.46
